# Source: patent publication US7410975B2, “Small molecule toll-like receptor (TLR) antagonists” (Coley Pharmaceutical Group, Inc., priority 2003, dated 2008)
# Molecular target: T1, human TLR7 (hTLR7) (Homo sapiens, UniProt Q9NYK1)
# T1 construct: expressed in transfected cells
# T1 sequence (Q9NYK1 27-1049): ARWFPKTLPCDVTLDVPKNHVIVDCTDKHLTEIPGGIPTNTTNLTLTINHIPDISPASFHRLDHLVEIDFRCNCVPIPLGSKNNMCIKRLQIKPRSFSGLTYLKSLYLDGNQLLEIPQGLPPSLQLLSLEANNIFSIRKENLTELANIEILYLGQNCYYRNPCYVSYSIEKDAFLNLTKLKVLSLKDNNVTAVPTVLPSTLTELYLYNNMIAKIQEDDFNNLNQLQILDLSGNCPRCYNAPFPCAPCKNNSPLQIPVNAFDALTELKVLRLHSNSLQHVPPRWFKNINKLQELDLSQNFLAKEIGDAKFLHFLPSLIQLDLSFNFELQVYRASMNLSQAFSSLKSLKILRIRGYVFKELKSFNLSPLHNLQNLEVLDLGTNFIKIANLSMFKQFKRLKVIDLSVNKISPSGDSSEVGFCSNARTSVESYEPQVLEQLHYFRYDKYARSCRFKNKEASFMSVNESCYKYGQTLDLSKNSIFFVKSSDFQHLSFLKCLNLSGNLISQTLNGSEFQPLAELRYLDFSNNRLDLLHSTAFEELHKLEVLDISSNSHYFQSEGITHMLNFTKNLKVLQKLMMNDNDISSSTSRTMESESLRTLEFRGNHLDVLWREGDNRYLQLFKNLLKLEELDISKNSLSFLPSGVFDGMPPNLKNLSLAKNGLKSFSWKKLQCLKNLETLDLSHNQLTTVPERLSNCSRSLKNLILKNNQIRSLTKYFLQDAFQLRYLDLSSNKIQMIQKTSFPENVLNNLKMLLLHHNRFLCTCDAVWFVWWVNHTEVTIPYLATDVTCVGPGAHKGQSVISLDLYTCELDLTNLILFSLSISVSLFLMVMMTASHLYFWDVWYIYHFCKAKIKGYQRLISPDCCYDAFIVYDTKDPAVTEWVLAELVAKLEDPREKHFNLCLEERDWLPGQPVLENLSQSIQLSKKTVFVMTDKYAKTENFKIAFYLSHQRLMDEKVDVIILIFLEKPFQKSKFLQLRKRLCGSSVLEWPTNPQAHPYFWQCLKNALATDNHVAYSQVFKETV
# Experiment: Antagonist screen, hTLR7-NFκB-293 cells, NF-κB-luciferase reporter, with EC50 of R848
# Type: cell-based
# Settings: compound at 0.5, 5, 50 μg/ml; EC50 concentration of R848; 16 h; NF-κB-luciferase
# Method: The method is described in greater detail as follows. The cells for each individual cell clone (hTLR3-NFκB-293, hTLR7-NFκB-293, hTLR8-NFκB-293 and hTLR9-NFκB-293) were counted and seeded one day before the stimulation at 1.5×10^4 cells per well in 96-well cell culture plates. To become adherent the cells were incubated after seeding overnight at 37° C. in 5% CO2 humidified air.
# The screen for each compound was performed at the same time for all of the receptors TLR3, TLR7, TLR8 and TLR9. Up to fifteen test compounds, each assayed in duplicate at each of three different final concentrations (0.5 μg/ml, 5 μg/ml, and 50 μg/ml), were used for 16 h cell stimulation on a single multiwell culture plate. A 4× final concentration master plate was created to prepare the different test compounds before they were added to the cells.
# Controls were added as duplicates individually for each cell clone on the cell culture plate. Positive controls were used as follows (final concentrations): 50 μg/ml poly(I:C) for hTLR3-NFκB-293; 8 μM resiquimod (R848) for hTLR7-NFκB-293; 30 μM R848 for hTLR8-NFκB-293; and 2.5 μM CpG-ODN 2006 for hTLR9-NFκB-293. Media alone was used as negative control. After addition of controls and small molecules, the cell clones were additionally stimulated with the EC50 concentration of the appropriate receptor-specific ligand.
# The mean value of wells H2 and H5 (each with cells and EC50 concentration of the appropriate receptor-specific ligand) divided by the mean of wells H3 and H6 (each with cells alone) yielded the baseline response (i.e., fold induction of luciferase activity) to EC50 concentration of the appropriate receptor-specific ligand.
# After 16 h stimulation the supernatant was removed and the cells treated with lysis buffer and stored at −80° C. before measuring.
# For each screen result a graphical documentation was performed.
# The baseline result (measured with addition of the EC50 concentration of the receptor-specific ligand) for each cell culture plate was measured as described above. Antagonistic effects were measured by down regulation compared to the baseline. Antagonists were scored as follows: • 13: compounds for which there was clear down regulation at 0.5 μg/ml, 5 μg/ml, and 50 μg/ml; • 12: compounds for which there was clear down regulation at 5 μg/ml and 50 μg/ml; • 11: compounds for which there was clear down regulation only at 50 μg/ml; • —: compounds for which there was no clear down regulation even at 50 μg/ml. Agonists
# Results were expressed as fold induction over baseline luciferase activity measured in the absence of R848. […] Additional screening was performed in like manner using additional small molecules selected from another library or specifically prepared for this purpose. Scoring is reported as above but as applied to TLR7.
row,Compound,"hTLR7 (inhibitory effect, antagonist score)"
1,"CC1NCCc2c1[nH]c1ccccc21.Cl (racemic) [compound 619, Eleagnine hydrochloride (R,S)]",— (compounds for which there was no clear down regulation even at 50 μg/ml)
2,"O=C1c2c(O)cccc2Cc2cccc(O)c21 [compound 43, Anthralin]",— (compounds for which there was no clear down regulation even at 50 μg/ml)
3,"CN(C)CCCN1c2ccccc2Sc2ccc(C(F)(F)F)cc21.Cl [compound 53, Triflupromazinehydrochloride]",11 (compounds for which there was clear down regulation only at 50 μg/ml)
4,"CN(C)CCCN1c2ccccc2Sc2ccc(Cl)cc21.Cl [compound 64, Chlorpromazinehydrochloride]",11 (compounds for which there was clear down regulation only at 50 μg/ml)
5,"CN(C)CCC=C1c2ccccc2CCc2ccccc21.Cl [compound 74, Amitryptilinehydrochloride]",11 (compounds for which there was clear down regulation only at 50 μg/ml)
6,"OC(c1ccccc1)(c1ccccc1)C1CCNCC1 [compound 93, Azacyclonol]",— (compounds for which there was no clear down regulation even at 50 μg/ml)
7,"CN1Cc2c(N)cccc2C(c2ccccc2)C1.O=C(O)/C=C\C(=O)O (centres unmarked) [compound 108, Nomifensine maleate]",— (compounds for which there was no clear down regulation even at 50 μg/ml)
8,"C[C@]12N[C@H](Cc3ccccc31)c1ccccc12.O=C(O)/C=C\C(=O)O [compound 109, Dizocilpine maleate]",— (compounds for which there was no clear down regulation even at 50 μg/ml)
9,"OCCN1CCN(CCCN2c3ccccc3Sc3ccc(Cl)cc32)CC1 [compound 125, Perphenazine]",— (compounds for which there was no clear down regulation even at 50 μg/ml)
10,"CN1CCN(CCCN2c3ccccc3Sc3ccc(S(=O)(=O)N(C)C)cc32)CC1.CS(=O)(=O)O.CS(=O)(=O)O [compound 149, Thioproperasinedimesylate]",— (compounds for which there was no clear down regulation even at 50 μg/ml)
11,"Clc1ccccc1C(c1ccccc1)(c1ccccc1)n1ccnc1 [compound 267, Clotrimazole]",12 (compounds for which there was clear down regulation at 5 μg/ml and 50 μg/ml)
12,"CC(NCCC(c1ccccc1)c1ccccc1)c1ccccc1.Cl (centres unmarked) [compound 270, Fendiline hydrochloride]",11 (compounds for which there was clear down regulation only at 50 μg/ml)
13,"CN1CCC(=C2c3ccccc3Sc3ccccc32)CC1.O=C(O)/C=C\C(=O)O [compound 294, Pimethixene maleate]",11 (compounds for which there was clear down regulation only at 50 μg/ml)
14,"O=c1[nH]c2ccccc2n1C1CCN(CCCC(c2ccc(F)cc2)c2ccc(F)cc2)CC1 [compound 308, Pimozide]",11 (compounds for which there was clear down regulation only at 50 μg/ml)
15,"Cl.Cl.OCCN1CCN(CC/C=C2/c3ccccc3Sc3ccc(C(F)(F)F)cc32)CC1 [compound 340, Flupentixoldihydrochloride cis-(Z)]",11 (compounds for which there was clear down regulation only at 50 μg/ml)
16,"CNCCCN1c2ccccc2CCc2ccccc21.Cl [compound 343, Desipraminehydrochloride]",12 (compounds for which there was clear down regulation at 5 μg/ml and 50 μg/ml)
17,"CN(C)CC/C=C1/c2ccccc2Sc2ccc(Cl)cc21.Cl [compound 348, Chlorprothixenehydrochloride]",11 (compounds for which there was clear down regulation only at 50 μg/ml)
18,"Cc1cccc(C)c1NC(=O)CN1CCN(CCCC(c2ccc(F)cc2)c2ccc(F)cc2)CC1 [compound 381, Lidoflazine]",11 (compounds for which there was clear down regulation only at 50 μg/ml)
19,"Cl.Cl.Fc1ccc(C(OCCN2CCN(CCCc3ccccc3)CC2)c2ccc(F)cc2)cc1 [compound 386, GBR 12909hydrochloride]",11 (compounds for which there was clear down regulation only at 50 μg/ml)
20,"Nc1cccc2c1C(=O)c1cccc(N)c1C2=O [compound 413, Anthraquinone,1,5-diamino]",— (compounds for which there was no clear down regulation even at 50 μg/ml)
21,"CN1CCC2C(C1)c1ccccc1N2Cc1ccccc1 (centres unmarked) [compound 455, Mebhydroline 1,5 naphtalenedisulfonate]",— (compounds for which there was no clear down regulation even at 50 μg/ml)
22,"Cc1cccc(CN2CCN(C(c3ccccc3)c3ccc(Cl)cc3)CC2)c1.Cl.Cl (centres unmarked) [compound 457, Meclozinedihydrochioride]",— (compounds for which there was no clear down regulation even at 50 μg/ml)
23,"c1ccc2c(c1)[nH]c1cnccc12 [compound 470, norharman]",11 (compounds for which there was clear down regulation only at 50 μg/ml)
24,"CN(C)CC/C=C1/c2ccccc2CSc2ccccc21.Cl [compound 488, Dosulepin hydrochloride]",— (compounds for which there was no clear down regulation even at 50 μg/ml)
25,"CN1CCN(C(c2ccccc2)c2ccccc2)CC1.Cl [compound 510, Cyclizine hydrochloride]",— (compounds for which there was no clear down regulation even at 50 μg/ml)
26,"CN1CCCCC1CCN1c2ccccc2Sc2ccc([S+](C)[O-])cc21.O=S(=O)(O)c1ccccc1 (centres unmarked) [compound 529, Mesoridazine besylate]",— (compounds for which there was no clear down regulation even at 50 μg/ml)
27,"CCOC(=O)Oc1c(OC)cc(C(=O)O[C@@H]2C[C@@H]3CN4CCc5c([nH]c6cc(OC)ccc56)[C@H]4C[C@@H]3[C@H](C(=O)OC)[C@H]2OC)cc1OC [compound 564, Syrosingopine]",11 (compounds for which there was clear down regulation only at 50 μg/ml)
28,"COC(=O)[C@H]1[C@H]2C[C@@H]3c4[nH]c5cc(OC)ccc5c4CCN3C[C@H]2C[C@@H](OC(=O)/C=C/c2cc(OC)c(OC)c(OC)c2)[C@@H]1OC [compound 568, Rescinnamin]",— (compounds for which there was no clear down regulation even at 50 μg/ml)
29,"CC(=O)c1ccc2c(c1)N(CCCN(C)C)c1ccccc1S2.O=C(O)/C=C\C(=O)O [compound 576, Acetopromazinemaleate salt]",— (compounds for which there was no clear down regulation even at 50 μg/ml)
